Data reported in the supplement of paper PMC11451515.

Tested on: SEM cells
Experiment: cell viability relative to DMSO control; higher = less cytotoxic
Conditions: 48 h
In short: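 Leukemia cells (NOMO1 or SEM, 500 cells/well; P12-Ichikawa, 1000 cells/well) were seeded in 5 μl in 1536-well plates after at least four passages of adaptation to each medium. They received library compounds in DMSO by pin dosing, 11 threefold points from 47 μM to 0.79 nM. Luminescence with CellTiter-Glo One was read after 48 h at 37°C. Viability is stated per plate relative to DMSO wells, with cell-free wells as background.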

[1] = HPLM + 10% dialyzed FBS, 0.000781 µM
[2] = HPLM + 10% dialyzed FBS, 0.00234 µM
[3] = HPLM + 10% dialyzed FBS, 0.00702 µM
[4] = HPLM + 10% dialyzed FBS, 0.0211 µM
[5] = HPLM + 10% dialyzed FBS, 0.0632 µM
[6] = HPLM + 10% dialyzed FBS, 0.19 µM
[7] = HPLM + 10% dialyzed FBS, 0.569 µM
[8] = HPLM + 10% dialyzed FBS, 1.71 µM
[9] = HPLM + 10% dialyzed FBS, 5.12 µM
[10] = HPLM + 10% dialyzed FBS, 15.4 µM
[11] = HPLM + 10% dialyzed FBS, 46.1 µM
[12] = RPMI 5 mM glucose + 10% dialyzed FBS, 0.000781 µM
[13] = RPMI 5 mM glucose + 10% dialyzed FBS, 0.00234 µM
[14] = RPMI 5 mM glucose + 10% dialyzed FBS, 0.00702 µM
[15] = RPMI 5 mM glucose + 10% dialyzed FBS, 0.0211 µM
[16] = RPMI 5 mM glucose + 10% dialyzed FBS, 0.0632 µM
[17] = RPMI 5 mM glucose + 10% dialyzed FBS, 0.19 µM
[18] = RPMI 5 mM glucose + 10% dialyzed FBS, 0.569 µM
[19] = RPMI 5 mM glucose + 10% dialyzed FBS, 1.71 µM
[20] = RPMI 5 mM glucose + 10% dialyzed FBS, 5.12 µM
[21] = RPMI 5 mM glucose + 10% dialyzed FBS, 15.4 µM
[22] = RPMI 5 mM glucose + 10% dialyzed FBS, 46.1 µM
[23] = RPMI 5 mM glucose + 10% FBS, 0.000781 µM
[24] = RPMI 5 mM glucose + 10% FBS, 0.00234 µM
[25] = RPMI 5 mM glucose + 10% FBS, 0.00702 µM
[26] = RPMI 5 mM glucose + 10% FBS, 0.0211 µM
[27] = RPMI 5 mM glucose + 10% FBS, 0.0632 µM
[28] = RPMI 5 mM glucose + 10% FBS, 0.19 µM
[29] = RPMI 5 mM glucose + 10% FBS, 0.569 µM
[30] = RPMI 5 mM glucose + 10% FBS, 1.71 µM
[31] = RPMI 5 mM glucose + 10% FBS, 5.12 µM
[32] = RPMI 5 mM glucose + 10% FBS, 15.4 µM
[33] = RPMI 5 mM glucose + 10% FBS, 46.1 µM

SMILES	cell viability [1] [%]	cell viability [2] [%]	cell viability [3] [%]	cell viability [4] [%]	cell viability [5] [%]	cell viability [6] [%]	cell viability [7] [%]	cell viability [8] [%]	cell viability [9] [%]	cell viability [10] [%]	cell viability [11] [%]	cell viability [12] [%]	cell viability [13] [%]	cell viability [14] [%]	cell viability [15] [%]	cell viability [16] [%]	cell viability [17] [%]	cell viability [18] [%]	cell viability [19] [%]	cell viability [20] [%]	cell viability [21] [%]	cell viability [22] [%]	cell viability [23] [%]	cell viability [24] [%]	cell viability [25] [%]	cell viability [26] [%]	cell viability [27] [%]	cell viability [28] [%]	cell viability [29] [%]	cell viability [30] [%]	cell viability [31] [%]	cell viability [32] [%]	cell viability [33] [%]
OC1=CC=C(C=C1)\C2=C\C(=O)C3=C(O2)C=C(O)C=C3O	106	111	115	112	113	108	108	94.4	106	113	96.3	92	121	119	109	111	108	108	94.9	93.6	98	64.2	–	–	–	–	–	–	–	–	–	–	–
CC(C)(C)c1cc(C(=O)O)c(NC(=O)Nc2ccc3[nH]ncc3c2)s1	95.4	97.5	89.6	101	100	70.7	100	98.6	85.9	93.1	82.2	95.2	93.1	83.3	97.5	99.6	88.9	102	91	87.5	93.7	73.2	112	93.2	94.2	107	101	90.8	111	104	101	93.1	77.7
Cc1ncc([N+](=O)[O-])n1CCO	100	94	104	104	112	105	103	111	118	100	108	107	109	123	122	114	146	127	115	122	124	130	104	118	103	111	118	109	109	117	121	105	104
C[C@@H]1CC[C@@]2(OC1)OC1CC3C4CC=C5CC(O)CCC5(C)C4CCC3(C)C1[C@@H]2C (stereo not given in full)	88.6	48	101	100	100	106	107	95.1	102	91.4	73.6	86.3	44.1	93.9	107	88.6	104	92.4	84.1	101	85.5	61.5	85.9	40.2	97.9	89.7	93.3	93.2	93.6	90.4	96.1	76.3	26.6
C=CCn1c(=O)c2cnc(Nc3ccc(N4CCN(C)CC4)cc3)nc2n1-c1cccc(C(C)(C)O)n1	117	118	127	110	98.6	81.4	61.4	28.3	25.7	24.5	29.4	111	119	135	93.5	90.8	64.6	52.7	26.3	15.7	19.3	21.8	–	–	–	–	–	–	–	–	–	–	–
COc1ccnc(C[S+]([O-])c2nc3cc(OC(F)F)ccc3[nH]2)c1OC (stereo not given)	110	111	124	123	122	123	133	119	134	128	143	111	95.9	126	131	125	118	127	144	126	130	137	–	–	–	–	–	–	–	–	–	–	–
CN(C)CC/C=C1/c2ccccc2COc2ccc(CC(=O)O)cc21	85.4	81.8	108	120	113	130	132	124	101	141	126	–	–	–	–	–	–	–	–	–	–	–	123	106	124	127	136	132	143	144	121	148	142
O=[N+]([O-])c1cnc(Sc2nnc(O)n2-c2ccc3c(c2)OCCO3)s1	90.4	69.9	80.1	82.6	73.2	86.9	102	84.3	83.2	2.06	2.49	82.7	67.9	81.6	84.1	77.4	88.2	85.1	86.7	77.9	2.08	2.84	87.5	70.9	87.6	87.8	89	88.6	100	73.1	71.4	2.18	2.5
